T1: PaSuhB (Pseudomonas aeruginosa, UniProt Q9HXI4)
T1 sequence (Q9HXI4 1-271): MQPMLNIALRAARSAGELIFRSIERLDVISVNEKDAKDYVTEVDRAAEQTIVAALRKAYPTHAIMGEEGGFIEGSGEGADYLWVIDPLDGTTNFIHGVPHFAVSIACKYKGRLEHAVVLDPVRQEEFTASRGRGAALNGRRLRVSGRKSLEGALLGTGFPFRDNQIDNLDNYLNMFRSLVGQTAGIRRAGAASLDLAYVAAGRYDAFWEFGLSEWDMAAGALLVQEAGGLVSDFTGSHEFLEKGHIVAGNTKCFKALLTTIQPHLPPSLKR

B1: PaSuhB (Pseudomonas aeruginosa PAO1) (protein)
chain: MQPMLNIALRAARSAGELIFRSIERLDVISVNEKDAKDYVTEVDRAAEQTIVAALRKAYPTHAIMGEEGGFIEGSGEGADYLWVIDPLDGTTNFIHGVPHFAVSIACKYKGRLEHAVVLDPVRQEEFTASRGRGAALNGRRLRVSGRKSLEGALLGTGFPFRDNQIDNLDNYLNMFRSLVGQTAGIRRAGAASLDLAYVAAGRYDAFWEFGLSEWDMAAGALLVQEAGGLVSDFTGSHEFLEKGHIVAGNTKCFKALLTTIQPHLPPSLKR

Key:
[1] = biological target: T1, PaSuhB; assay: biochemical
[2] = biological target: T1, PaSuhB; assay: biochemical; remark: listed apart in the source
[3] = substrate: O=P(O)(O)O[C@@H]1[C@H](O)[C@H](O)[C@@H](O)[C@H](O)[C@H]1O; assay: purified protein; settings: Mg2+, pH 8.0, 37 °C, no inhibitor

Molecule	IC50 [1] [µM]	Kd [2] [µM]	Km [3] [µM]
O=C(O)c1cc(O)c(O)c(O)c1 [GDE, 3,4,5-trihydroxybenzoic acid]	~1340	8.71	–
B1	–	–	43.82

Source: doi:10.1101/2025.11.12.687946v2 (biorxiv, 2025)
